Values quoted from earlier work as cited in US20220175741A1, “COMPOSITIONS, DEVICES AND METHODS FOR TREATING AUTISM” (priority 2017, published 2022).

Columns and labels:
[1] = system: child's autistic symptoms; conditions: one child; Rodakis, Microbial Ecology in Health & Disease 2015
children with Autism = conditions: within a few weeks of treatment; Sandler et al, Journal of Child Neurology 2000

| SMILES | autistic symptoms [1] | behavioural changes of autistic children (children with Autism) |
| --- | --- | --- |
| CC1(C)S[C@@H]2[C@H](NC(=O)[C@H](N)c3ccc(O)cc3)C(=O)N2[C@H]1C(=O)O [amoxycillin] | reversed almost completely |  |
| CN[C@H](CC(C)C)C(=O)N[C@H]1C(=O)N[C@@H](CC(N)=O)C(=O)N[C@H]2C(=O)N[C@H]3C(=O)N[C@H](C(=O)N[C@H](C(=O)O)c4cc(O)cc(O)c4-c4cc3ccc4O)[C@H](O)c3ccc(c(Cl)c3)Oc3cc2cc(c3O[C@@H]2O[C@H](CO)[C@@H](O)[C@H](O)[C@H]2O[C@H]2C[C@](C)(N)[C@H](O)[C@H](C)O2)Oc2ccc(cc2Cl)[C@H]1O [vancomycin] |  | reversal of behavioural changes and progress to normality |
